In general, IC50 refers to the concentration needed to halve the response being measured.

The record followed here is ChEMBL document CHEMBL4028835, “Identification of low micromolar dual inhibitors for aldose reductase (ALR2) and poly (ADP-ribose) polymerase (PARP-1) using structure based design approach” (Bioorg Med Chem Lett, 2017).

In test [1] the target is Poly [ADP-ribose] polymerase 1 (Homo sapiens, UniProt P09874). Briefly: Inhibition of PARP1 (unknown origin) using activated DNA as substrate measured after 60 mins in presence of biotinylated NAD by colorimetric assay.
Test [2] in a line: Inhibition of goat lenses ALR2 using glyceraldehyde as substrate measured for 5 mins by UV-spectrophotometric method. Further details: species or system Capra hircus.

SMILES strings stand for the structures. A value given as a limit tells only on which side of the number the result lay.

Poly [ADP-ribose] polymerase 1, sequence (P09874 whole entry): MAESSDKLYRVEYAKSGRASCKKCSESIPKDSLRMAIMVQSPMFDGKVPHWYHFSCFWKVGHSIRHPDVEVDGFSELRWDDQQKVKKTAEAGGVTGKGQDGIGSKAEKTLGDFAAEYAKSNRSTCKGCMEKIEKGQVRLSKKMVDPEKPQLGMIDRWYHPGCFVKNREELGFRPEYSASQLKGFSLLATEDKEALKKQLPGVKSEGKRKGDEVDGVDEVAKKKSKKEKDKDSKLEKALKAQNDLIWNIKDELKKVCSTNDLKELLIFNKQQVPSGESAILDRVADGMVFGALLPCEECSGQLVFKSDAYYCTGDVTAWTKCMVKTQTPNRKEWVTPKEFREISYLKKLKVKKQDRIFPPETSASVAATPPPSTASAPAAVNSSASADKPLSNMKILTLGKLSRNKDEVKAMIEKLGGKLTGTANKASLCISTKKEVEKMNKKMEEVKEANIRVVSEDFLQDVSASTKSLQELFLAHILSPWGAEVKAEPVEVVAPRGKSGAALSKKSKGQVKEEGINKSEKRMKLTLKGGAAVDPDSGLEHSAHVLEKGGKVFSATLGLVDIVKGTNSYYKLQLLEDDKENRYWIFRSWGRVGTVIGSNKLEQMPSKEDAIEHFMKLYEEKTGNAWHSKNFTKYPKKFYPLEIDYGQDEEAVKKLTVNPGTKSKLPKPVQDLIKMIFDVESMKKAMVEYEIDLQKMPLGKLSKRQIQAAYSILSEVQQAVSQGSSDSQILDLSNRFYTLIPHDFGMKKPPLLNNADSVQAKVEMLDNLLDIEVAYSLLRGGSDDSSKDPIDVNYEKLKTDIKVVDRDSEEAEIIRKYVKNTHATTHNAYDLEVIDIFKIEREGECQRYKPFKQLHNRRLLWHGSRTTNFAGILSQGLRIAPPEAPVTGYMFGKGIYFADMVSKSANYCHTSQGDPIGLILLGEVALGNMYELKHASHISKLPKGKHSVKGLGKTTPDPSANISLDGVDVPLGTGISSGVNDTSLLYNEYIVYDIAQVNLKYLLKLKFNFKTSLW

`O=C1NC(=O)/C(=C/c2c[nH]c3ccccc23)S1`: the results for the IC50 in test [1] and in test [2] were greater than 100 µM and 16.4 µM, respectively.

Consider `CCc1ccc(Cn2cc(C=C3SC(=O)NC3=O)c3ccccc32)cc1`, for which, in test [2], the concentration for half-maximal inhibition (IC50) is 13.9 µM.

Take `O=C1NC(=O)/C(=C/c2cn(Cc3cccc(Cl)c3)c3ccccc23)S1`: the IC50 in test [2] is 23 µM.

With `CC(C)c1ccc(Cn2cc(C=C3SC(=O)NC3=O)c3ccccc32)cc1`, the half-inhibitory concentration (IC50) in test [1] stood at 0.74 µM; in test [2], 40 µM.

Regarding `O=C1NC(=O)/C(=C/c2cn(Cc3ccccc3)c3ccccc23)S1`, the half-inhibitory concentration (IC50) is greater than 100 µM in test [1] and 6.57 µM in test [2].

In test [2], `CC(C)(C)c1ccc(Cn2cc(/C=C3\SC(=O)NC3=O)c3ccccc32)cc1` gave a half-inhibitory concentration (IC50) of 48.5 µM.

For `O=C1NC(=O)/C(=C/c2cn(Cc3ccccc3Cl)c3ccccc23)S1`, in test [2], the midpoint of inhibition, the IC50, lay at 4.72 µM.

On to `O=C1NC(=O)/C(=C/c2cn(Cc3ccc(Cl)cc3)c3ccccc23)S1`, for which the figures for the IC50 in test [1] and in test [2] were greater than 100 µM and 15.4 µM, respectively.

Compound `Cc1ccc(Cn2cc(C=C3SC(=O)NC3=O)c3ccccc32)cc1` had an IC50 in test [2] of 11.5 µM.

The compound `CC(/C=C1\SC(=S)N(CC(=O)O)C1=O)=C\c1ccccc1` registered an IC50 in test [2] of 0.09 µM.

The compound `O=C1NC(=O)/C(=C/c2cn(Cc3cccc(C(F)(F)F)c3)c3ccccc23)S1` returned an IC50 in test [2] of 22.9 µM.

As to `O=C1NC(=O)/C(=C/c2cn(Cc3ccc(Cl)cc3Cl)c3ccccc23)S1`, in test [2], the IC50 was 24.4 µM.

On to `O=C1NC(=O)/C(=C/c2cn(Cc3ccc(F)cc3)c3ccccc23)S1`, for which half-maximal inhibition in test [2] (IC50) was put at 1.7 µM.
